Measured values: patent US9422306B2, “Artemisinin compounds and synthesis and use thereof” (University of Washington Through Its Center for …, priority 2012, dated 2016)
Like-named read-outs stand apart in the source and are kept apart here.

Experiments:
NCI 60 cell lines = conditions: panel of NCI 60 cell lines; cited from earlier work
MDA-MB-231 cells = assay: MTT cell viability assay, MDA-MB-231 breast cancer cells; type: cell-based; conditions: for IC50: read-out: MDA MB 231 IC50; for Selectivity MDA MB 231: values match MCF-10A IC50 / MDA MB 231 IC50, formula not given
Protocol: (§1) In vitro toxicity of the compounds described herein were tested on two breast cancer cell lines, MDA-MB-231 and BT-474. These cell lines represent triple negative and HER2-positive breast cancers, respectively. BT474 cell and MDA-MB-231 cells were maintained in DMEM media supplemented with 10% v/v FBS. On reaching confluency (1×10^6 cells/mL in a 25 mL flask), 1×10^6 cells were seeded in 25 mL of fresh supplemented media. The cells were incubated under humidified air containing 5% CO2 at 37° C. Cell density was kept below 1×10^6 cells/mL to ensure exponential growth and to avoid differentiation. Cells were only used between passages 5 and 15 to prevent cell differentiation.
(§2) A standard MTT assay was used to determine the cell viability at 48 hr after an artemisinin derivative was added to the culture medium. Cell viability was above 95% for all experiments. The viable cell count was based on trypan blue exclusion from the cells and was performed in a hemocytometer using a light microscope. To 50 μL of cells was added 20 μL of trypan blue 0.4% solution and 30 μL D-Hanks solution was counted. During experiments cells were exposed to drug stock solutions which were made up in 100% DMSO and the final solvent concentration was 1% v/v in each incubation. Each concentration in every experiment was carried out in triplicate.
(§3) BT474 (2000 cells/100 μL) or MDA-MB-231 cells (7500 cells/100 μL) were seeded on a 96 well plate respectively, and incubated for 24 hr at 37° C. The medium was removed, and replaced it with 200 μL of the complete medium containing artemisinin derivatives. The cells were incubated for 48 hr at 37° C., the medium was removed, and replaced it with 100 μL of fresh complete medium. 10 μL of […] MTT stock solution (D-Hanks) was added to each well. After incubating for 3 hr at 37° C., formazan crystals were solubilized in 50 μL of DMSO and absorbance was measured at 570 nm with BIO-RAD model 680 microplate reader. All data were analyzed using Microsoft Excel. IC50 values were determined with Graphpad Prism 5.

BT474 cells = assay: MTT cell viability assay, BT474 breast cancer cells; type: cell-based; conditions: for IC50: read-out: BT474 IC50; for Selectivity BT474: values match MCF-10A IC50 / BT474 IC50, formula not given
Protocol: as §1, §2, §3

MCF-10A = MCF-10A IC50; type: cell-based
[1] = test system: PCa cell lines DU 145, PC-3, C4-2, and LNCaP; assay: Cytotoxicity against a panel of four PCa cell lines; type: cell-based; conditions: DU 145, PC-3, C4-2, LNCaP
Protocol: The cytotoxicity of artemisinin dimers, dimer-2Py, was evaluated against a panel of four PCa cell lines, DU 145, PC-3, C4-2, and LNCaP.

[2] = Homo sapiens, MDA-MB-231, MTT, 48 hr incubation
[3] = Homo sapiens, BT-474, MTT, 48 hr incubation

Row | Compound | IC50 (MDA-MB-231 cells; [2]) | IC50 (BT474 cells; [3]) | times more potent than artemisinin monomers such as artesunate (NCI 60 cell lines) | IC50 (MDA-MB-231 cells; MTT, 48 hr incubation) | Selectivity MDA MB 231 (MDA-MB-231 cells) | IC50 (BT474 cells; MTT, 48 hr incubation) | Selectivity BT474 (BT474 cells) | IC50 (MCF-10A) | IC50 (MDA-MB-231 cells; Homo sapiens, MDA-MB-231, 48 h) | IC50 (BT474 cells; Homo sapiens, BT-474, 48 h) | IC50 (MCF-10A; Homo sapiens, MCF-10A) | times less potent than artemisinin dimer succinate (MDA-MB-231 cells; MDA-MB-231) | cytotoxicity [1]
1 | C[C@H]1[C@@H](CC(COC(=O)CCC(=O)O)C[C@H]2O[C@@H]3O[C@@]4(C)CC[C@H]5[C@H](C)CC[C@@H]([C@H]2C)[C@@]35OO4)O[C@@H]2O[C@@]3(C)CC[C@H]4[C@H](C)CC[C@@H]1[C@@]24OO3 (stereo partly shown) [Artemisinin dimer succinate, reference compound] |  |  | up to 500 times | 0.24 µM | 88 | 0.1 µM | 210 | 21 µM |  |  |  |  | 
2 | C[C@H]1[C@H](OC(=O)CCC(=O)O)O[C@@H]2O[C@@]3(C)CC[C@H]4[C@H](C)CC[C@@H]1[C@@]24OO3 [Artesunate, reference compound] |  |  |  |  | 0.46 |  | 2.7 |  | 46 µM | 7.8 µM | 21 µM |  | 
3 | COC(=O)CNC(=O)C(CC[C@H]1O[C@@H]2OC3(C)CCC4[C@H](C)CCC([C@H]1C)[C@]42OO3)N(C(=O)c1ccccc1)C(C)C (stereo partly shown) [Compound 7] | > 100 µM | > 100 µM |  |  |  |  |  |  |  |  | > 100 µM |  | 
4 | C[C@H]1[C@@H](O)O[C@@H]2O[C@@]3(C)CC[C@H]4[C@H](C)CC[C@@H]1[C@@]24OO3 [dihydroartemisinin] |  |  |  |  |  |  |  |  |  |  |  |  | negligible activity

Continued, in another order:

Row | IC50 (MDA-MB-231 cells; [2]) | IC50 (BT474 cells; [3]) | Compound | times more potent than artemisinin monomers such as artesunate (NCI 60 cell lines) | IC50 (MDA-MB-231 cells; MTT, 48 hr incubation) | Selectivity MDA MB 231 (MDA-MB-231 cells) | IC50 (BT474 cells; MTT, 48 hr incubation) | Selectivity BT474 (BT474 cells) | IC50 (MCF-10A) | IC50 (MDA-MB-231 cells; Homo sapiens, MDA-MB-231, 48 h) | IC50 (BT474 cells; Homo sapiens, BT-474, 48 h) | IC50 (MCF-10A; Homo sapiens, MCF-10A) | times less potent than artemisinin dimer succinate (MDA-MB-231 cells; MDA-MB-231) | cytotoxicity [1]
5 | 19 µM | 6.6 µM | COC(=O)CNC(=O)C(CC[C@H]1O[C@@H]2OC3(C)CCC4[C@H](C)CCC([C@H]1C)[C@]42OO3)N(CCC[C@H]1O[C@@H]2OC3(C)CCC4[C@H](C)CCC([C@H]1C)[C@]42OO3)C(=O)C(F)(F)F (stereo partly shown) [Compound 6a] |  |  | 0.24 |  | 0.70 |  |  |  | 4.6 µM |  | 
6 | 11 µM | 0.79 µM | COC(=O)CNC(=O)C(CC[C@H]1O[C@@H]2OC3(C)CCC4[C@H](C)CCC([C@H]1C)[C@]42OO3)N(CCC[C@H]1O[C@@H]2OC3(C)CCC4[C@H](C)CCC([C@H]1C)[C@]42OO3)C(=O)c1ccccc1 (stereo partly shown) [Compound 6b] |  |  | 0.45 |  | 6.3 |  |  |  | 5 µM |  | 
7 | 12 µM | 5.8 µM | COC(=O)CNC(=O)C(CC[C@H]1O[C@@H]2OC3(C)CCC4[C@H](C)CCC([C@H]1C)[C@]42OO3)N(CCC[C@H]1O[C@@H]2OC3(C)CCC4[C@H](C)CCC([C@H]1C)[C@]42OO3)C(=O)c1cccc(OC)c1OC (stereo partly shown) [Compound 6c] |  |  | 0.48 |  | 0.98 |  |  |  | 5.7 µM |  | 
8 | 12 µM | 0.88 µM | COC(=O)CNC(=O)C(CC[C@H]1O[C@@H]2OC3(C)CCC4[C@H](C)CCC([C@H]1C)[C@]42OO3)N(CCC[C@H]1O[C@@H]2OC3(C)CCC4[C@H](C)CCC([C@H]1C)[C@]42OO3)C(=O)c1ccc(N(C)C)cc1 (stereo partly shown) [Compound 6d] |  |  | 1.3 |  | 17 |  |  |  | 15 µM |  | 
9 | 26 µM | 1.7 µM | COC(=O)CNC(=O)C(CC[C@H]1O[C@@H]2OC3(C)CCC4[C@H](C)CCC([C@H]1C)[C@]42OO3)N(CCC[C@H]1O[C@@H]2OC3(C)CCC4[C@H](C)CCC([C@H]1C)[C@]42OO3)C(=O)c1cnccn1 (stereo partly shown) [Compound 6e] |  |  | 0.96 |  | 15 |  |  |  | 25 µM |  | 
10 | 1.2 µM | 0.096 µM | COC(=O)CNC(=O)C(CC[C@H]1O[C@@H]2OC3(C)CCC4[C@H](C)CCC([C@H]1C)[C@]42OO3)N(CCC[C@H]1O[C@@H]2OC3(C)CCC4[C@H](C)CCC([C@H]1C)[C@]42OO3)c1ccc([N+](=O)[O-])cc1 (stereo partly shown) [Compound 6f] |  |  | 39 |  | 490 |  |  |  | 47 µM | 5 times | 
